In patent US6395747B1, “Remedies for multiple sclerosis” (Kyorin Pharmaceutical Co., Ltd., priority 2001, dated 2002):

What was measured:
EAE model [1] = assay: Clinical disease ameliorating effect in rat EAE (multiple sclerosis) model; format: in vivo, DA strain rats; settings: DA rats
EAE model [2] = assay: Histological evaluation of spinal cord inflammation in rat EAE model; format: in vivo, DA strain rats; settings: 10 mg/kg once a day through a feeding tube, 12 days after immunization
[3] = 10 mg/kg once a day through a feeding tube

SMILES: CC(C)C(=O)c1c(C(C)C)nn2ccccc12 [ibudilast]
- clinical disease condition (clinical score) versus control group (EAE model [1]; 2 mg/kg once a day through a feeding tube): tendency of amelioration
- body weight decrease (EAE model [1]; [3]): suppressed significantly
- clinical disease condition (clinical score) versus control group (EAE model [1]; [3]): significant amelioration
- disease onset (EAE model [1]; ibudilast-treated group, oral once a day): delayed
- histological effect in comparison with the control (EAE model [2]): significant effect histologically
- average histological score (inflammation, lumbar spinal cord, hematoxylin-eosin) (EAE model [2]; score scale 0-4): about 2.0
